Consider 52 molecules from paper PMC8041284, “Tunable Methacrylamides for Covalent Ligand Directed Release Chemistry” (Journal of the American Chemical Society, 2021).

The target in this experiment is BTK (Homo sapiens, UniProt Q06187). As to the kind of experiment: biochemical. The conditions noted are these: read-out: BTK inhibition (%), 0.75 uM BTK, […] probe 3l, 15 min preincubation.
Chain of BTK (Q06187 402-655 limits assumed): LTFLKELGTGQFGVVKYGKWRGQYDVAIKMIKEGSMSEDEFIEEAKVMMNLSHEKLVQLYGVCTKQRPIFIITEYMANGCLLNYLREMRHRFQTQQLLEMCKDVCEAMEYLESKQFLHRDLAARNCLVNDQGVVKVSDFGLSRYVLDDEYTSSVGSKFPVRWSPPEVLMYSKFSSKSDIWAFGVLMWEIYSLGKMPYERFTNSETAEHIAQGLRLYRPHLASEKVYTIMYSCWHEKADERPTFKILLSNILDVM

In general, inhibition refers to the relative decrease from the control value, in per cent. For `CC(C)N(CCNC(=O)CN1CCCC1=O)C(C)C` [PCM-0095202], the inhibition at 10 µM was found to be 1.6%.
As for `N[C@@H]1CN(c2c(F)cc3c(=O)c(C(=O)O)cn([C@@H]4C[C@@H]4F)c3c2Cl)CC12CC2` [PCM-0095203], the figure is -6.8%; as for `O=C(Nc1ncc(SCCN2CCCC2)s1)[C@]1(c2ccc(S(=O)(=O)C3CC3)cc2)C[C@H]1C1CCCCC1` [PCM-0095206], -8.6%; as for `NC1=N[C@@]2(c3cc(NC(=O)c4ccc(F)cn4)ccc3F)COC[C@H]2CS1` [PCM-0095207], -3.1%.
Then `O=C(c1ccc(/C=C/c2n[nH]c3ccccc23)cc1)N1CCNCC1` [PCM-0095209], with 46.2%; and `CCCN1CCO[C@@H]2c3cc(O)ccc3OC[C@H]21` [PCM-0095211], with -8.6%.
For `CCC[C@@H]1C[C@@H](C(=O)N[C@@H]([C@H]2O[C@H](SC)[C@H](OP(=O)(O)O)[C@@H](O)[C@H]2O)[C@H](C)Cl)N(C)C1` [PCM-0095212], the inhibition at 10 µM is -5.1%.
Then `C=CCc1cc(OC)c(O)c(C(=O)NCCO)c1` [PCM-0095214], with -16.3%; and `Nc1ccn([C@@H]2O[C@H](CO)[C@@H](O)[C@H]2O)c(=O)n1` [PCM-0095215], with -15.6%; and `O=c1cc(O)c(Cl)c[nH]1` [PCM-0095217], with -3.9%.
Then `CCN(CC)Cc1ccc2cc(COC(=O)Nc3ccc(C(=O)NO)cc3)ccc2c1` [PCM-0095219], with -10.1%; and `CN(C)Cc1ccc(-c2nc3cccc4c3n2CCNC4=O)cc1` [PCM-0095220], with 4.8%.
As for `Cc1cc(Nc2cc(CN3CCOCC3)c3nc(C)c(Cc4ccc(Cl)cc4F)n3n2)n[nH]1` [PCM-0095222], the figure is 56.6%; as for `CC[C@H](c1ccc(O)cc1)[C@@H](CC)c1ccc(O)cc1` [PCM-0095223], -11.7%; as for `CC(C)C[C@H](NC(=O)CNC(=O)c1cc(Cl)ccc1Cl)B(O)O` [PCM-0095224], 5.4%.
Regarding `CC(C)C[C@H](NC(=O)CNC(=O)c1cc(Cl)ccc1Cl)B1OC(=O)CC(CC(=O)O)(C(=O)O)O1` (stereo partly shown) [PCM-0095225], the inhibition at 10 µM is -2.1%.
Then `Cc1ccc(C(=O)N(CCCN)[C@@H](c2oc3cc(Cl)ccc3c(=O)c2Cc2ccccc2)C(C)C)cc1` [PCM-0095226], with -2.3%; and `CCC[C@@H]1C[C@@H](C(=O)N[C@@H]([C@H]2O[C@H](SC)[C@H](O)[C@@H](O)[C@H]2O)[C@@H](C)O)N(C)C1` [PCM-0095227], with -4.7%; and `C=CC(=O)Nc1ccc2ncnc(Nc3ccc(OCc4cccc(F)c4)c(Cl)c3)c2c1` [PCM-0095229], with 110%.
With `CNC1CCCN(c2c(F)cc3c(=O)c(C(=O)O)cn(C4CC4)c3c2OC)C1` (stereo not shown) [PCM-0095230], the inhibition at 10 µM is -5.4%.
As for `O=C(C[S+]([O-])Cc1ccco1)NC/C=C\COc1cc(CN2CCCCC2)ccn1` (stereo not shown) [PCM-0095231], the figure is -9%; as for `CCOC(=O)c1c(C)n(C)c2ccc(O)cc12` [PCM-0095233], -14%.
Then `Cc1cccc(-c2[nH]c(C(C)(C)C)nc2-c2ccc3c(c2)OCO3)n1` [PCM-0095234], with 9.3%.
As for `CC(C)c1cc(C(C)C)c(CC(=O)NS(=O)(=O)Oc2c(C(C)C)cccc2C(C)C)c(C(C)C)c1` [PCM-0095235], the figure is 56%; as for `CNC(=O)CN1CCC(Oc2cc3c(Nc4cccc(Cl)c4F)ncnc3cc2OC)CC1` [PCM-0095236], 23.4%.
Regarding `C[C@@H](Oc1cc(-n2cnc3ccc(CN4CCN(C)CC4)cc32)sc1C(N)=O)c1ccccc1C(F)(F)F` [PCM-0095237], the inhibition at 10 µM is 0.7%.
As for `CN1CCC(CNc2ccc3ncc(-c4cccc(OC(F)(F)F)c4)n3n2)CC1` [PCM-0095238], the figure is 45.5%; as for `CC(C)C1CCC(C(=O)N[C@H](Cc2ccccc2)C(=O)O)CC1` (stereo partly shown) [PCM-0095239], -4.7%; as for `Nc1nccc(Oc2ccc(NC(=O)c3c[nH]cc(-c4ccc(F)cc4)c3=O)cc2F)c1Cl` [PCM-0095240], 68.3%.
Then `Cc1ccc(C(=O)Nc2cccc(C(F)(F)F)c2)cc1Nc1nc(-c2cccnc2)nc2c1cnn2C` [PCM-0095241], with 4.8%; and `C#Cc1cccc(Nc2ncnc3cc(OCCOC)c(OCCO)cc23)c1` [PCM-0095242], with 31%; and `CCOC(=O)[C@H](CCc1ccccc1)N[C@@H](C)C(=O)N1Cc2cc(OC)c(OC)cc2C[C@H]1C(=O)O` [PCM-0095243], with -6.2%.
Then `CCCC(=O)OCOC(=O)C1=C(C)NC(C)=C(C(=O)OC)C1c1cccc(Cl)c1Cl` (stereo not shown) [PCM-0095244], with 18.7%; and `Cc1ccccc1-n1c(Cn2ncc3c(N)ncnc32)nc2cccc(C)c2c1=O` [PCM-0095248], with 4.1%; and `Cc1cc(Nc2nc(N[C@@H](C)c3ccc(F)cc3)c(C#N)cc2F)n[nH]1` [PCM-0095250], with 99.3%.
Take `C[C@H](NC(=O)Cc1cc(F)cc(F)c1)C(=O)N[C@H](C(=O)OC(C)(C)C)c1ccccc1` [PCM-0095251]: the inhibition at 10 µM was -29%.
As for `FC(F)(F)c1ccc(/C=C/c2nc(COc3ccc(CCCCn4ccnn4)cc3)co2)cc1` [PCM-0095252], the figure is 13.1%; as for `N#CCNC(=O)c1ccc(-c2ccnc(Nc3ccc(N4CCOCC4)cc3)n2)cc1` [PCM-0095254], 16.6%; as for `COc1cc2c(cc1OC)CC(=O)N(CCCN(C)C[C@H]1Cc3cc(OC)c(OC)cc31)CC2` [PCM-0095255], -3.1%.
As for `Cc1cccc(Cc2cnc[nH]2)c1C` [PCM-0095257], the figure is -20.2%; as for `COC(c1ccccc1)(c1ccccc1)[C@H](Oc1nc(C)cc(C)n1)C(=O)O` [PCM-0095259], 10.9%.
As for `C=C(c1ccc(C(=O)O)cc1)c1cc2c(cc1C)C(C)(C)CCC2(C)C` [PCM-0095260], the figure is 14%; as for `CCOC(=O)[C@H](CCc1ccccc1)N[C@H]1CS[C@H](c2cccs2)CN(CC(=O)O)C1=O` [PCM-0095261], -1.6%.
Take `CN(C)CCOc1ccc(-c2nc(-c3ccc4c(c3)CCC4=NO)c(-c3ccncc3)[nH]2)cc1` [PCM-0095262]: the inhibition at 10 µM is -2.1%.
Then `N#CC1(c2ccc(NC(=O)c3cccnc3NCc3ccncc3)cc2)CCCC1` [PCM-0095263], with 2.8%.
Then `CC[C@H](Nc1ncnc2nc[nH]c12)c1nc2cccc(F)c2c(=O)n1-c1ccccc1` [PCM-0095266], with -5.5%; and `Cc1cccc(-c2nn3c(c2-c2ccnc4ccc(C(N)=O)cc24)CCC3)n1` [PCM-0095269], with 11.7%; and `CNC(=O)c1cc(COc2nnc(Nc3ccc(Cl)cc3)c3ccoc23)ccn1` [PCM-0095270], with 15.2%.
On to `CCCC(=O)O` [PCM-0095272], for which the inhibition at 10 µM turned out to be 0%.
Then `COc1cc2c(cc1Cc1cccc(Cl)c1F)c(=O)c(C(=O)O)cn2[C@H](CO)C(C)C` [PCM-0095274], with 31.9%; and `CN1C(=O)COc2c(C(=O)NC3CN4CCC3CC4)cc(Cl)cc21` (stereo not shown) [PCM-0095275], with -7.7%.
Then `Cc1nnc(C(=O)NC(C)(C)c2nc(C(=O)NCc3ccc(F)cc3)c(O)c(=O)n2C)o1` [PCM-0095277], with 4.7%.
